Among the data in US4021564A, “Neuroleptic piperidine compounds” (AB Ferrosan, priority 1975, dated 1977) are ED50 and LD50 values, retold here.

The subject of one data set is rats. Description: Inhibition of Conditioned Avoidance Response in rats. In kind it is in vivo. To be noted: Rattus norvegicus, sc, 1.5 hrs. From the text: (b) Inhibition of conditioned behavior in rats. These tests have been described, and the importance of coordinating the compounds with these tests and the activities shown thereby is described in detail in the following literature: (b) Inhibition of Conditioned Avoidance Response "Neuroleptics characteristically interrupt the response to the warning stimulus (avoidance) without at the same time interrupting the response to the noxious stimulus (escape) which follows it." An introduction to Psycho-Pharmacology, Eds. Rech and Moore, New York, p. 264 (1971); Courvoisier, S., et al., in Arch. Int. Pharmacodyn. 92, 305 (1953); Jacobsen, E., in Psychotrophic Drugs, […], Amsterdam, p. 119 (1957). Jacobsen and Sonne, in Acta Pharmacol. et Toxicol. 11, pp. 135-147 (1955).

For the next data set, the system named is mice. Description: Inhibition of Exploratory Behavior (Climbing) in mice. The note with it: Mus musculus, sc, 1 hr. In kind it is in vivo. From the text: (a) Inhibition of climbing in mice (inhibition of exploratory behavior). These tests have been described, and the importance of coordinating the compounds with these tests and the activities shown thereby is described in detail in the following literature: (a) Inhibition of Exploratory Behavior (Climbing) van Rossum, J.M., et al., in The Neuroleptics, Modern Problems of Pharmaco-[…], Vol. 5, […]., in Arch. Int. Pharmacodyn 126, 238 (1960). Sandberg, S., in Arzneimittelforschung 9, 203 (1958).

The nature of a further data set: Acute Toxicity in Mice. The note with it: mouse, in vivo.

Turning to `Cl.O=C(CCCN1CCC(O)(C(=O)c2ccc(F)cc2)CC1)c1ccc(F)cc1` [F, 1-[3-(p-fluorobenzoyl)propyl]-4-(p-fluorobenzoyl)-4-hydroxypiperidine hydrochloride], the ED50 (usually the midpoint of the dose-response relation) in the data set with rats turned out to be 0.13 mg/kg; in the data set with mice, 0.19 mg/kg. The values for the LD50 at 48 h in “Acute Toxicity in Mice” (po) and in “Acute Toxicity in Mice” (sc) were 500 mg/kg and above 1000 mg/kg, respectively.

Regarding `Cc1ccc(C(=O)C2(O)CCN(CCCC(=O)c3ccc(F)cc3)CC2)cc1` [CH3, 1-[3-(p-fluorobenzoyl)propyl]-4-(p-methylbenzoyl)-4-hydroxypiperidine], the ED50 in the data set on rats amounted to 0.32 mg/kg; in the data set with mice it was 0.8 mg/kg. The LD50 at 48 h in the data set “Acute Toxicity in Mice” (po) and in “Acute Toxicity in Mice” (sc) was above 1000 mg/kg in each case.

Turning to `COc1ccc(C(=O)C2(O)CCN(CCCC(=O)c3ccc(F)cc3)CC2)cc1` [OCH3, 1-[3-(p-fluorobenzoyl)propyl]-4-(p-methoxybenzoyl)-4-hydroxypiperidine], the ED50 in the data set with rats came to 0.24 mg/kg; in the data set with mice, 1 mg/kg. Further, the LD50 (commonly the dose expected to kill half of the subjects tested) at 48 h in “Acute Toxicity in Mice” (po) is 890 mg/kg; in “Acute Toxicity in Mice” (sc), above 1000 mg/kg.

Turning to `O=C(CCCN1CCC(O)(C(=O)c2ccc(Cl)cc2)CC1)c1ccc(F)cc1` [Cl, 1-[3-(p-fluorobenzoyl)propyl]-4-(p-chlorobenzoyl)-4-hydroxypiperidine], the ED50 in the data set on rats was determined as 0.37 mg/kg; with mice, 0.95 mg/kg. The LD50 at 48 h in “Acute Toxicity in Mice” (po) was 630 mg/kg; in “Acute Toxicity in Mice” (sc), above 1000 mg/kg.
